Measurements: patent US9226916B2, “Pyrrolidine derivatives” (HOFFMANN-LA ROCHE INC., priority 2009, dated 2016)
pKi: −log10 of the molar value.

Target: T1, recombinant human NK3 receptor (Homo sapiens, UniProt P29371)
T1 construct: expressed in transfected cells; host or cells: HEK293 cells, transient expression; membranes
T1 sequence (P29371 1-465): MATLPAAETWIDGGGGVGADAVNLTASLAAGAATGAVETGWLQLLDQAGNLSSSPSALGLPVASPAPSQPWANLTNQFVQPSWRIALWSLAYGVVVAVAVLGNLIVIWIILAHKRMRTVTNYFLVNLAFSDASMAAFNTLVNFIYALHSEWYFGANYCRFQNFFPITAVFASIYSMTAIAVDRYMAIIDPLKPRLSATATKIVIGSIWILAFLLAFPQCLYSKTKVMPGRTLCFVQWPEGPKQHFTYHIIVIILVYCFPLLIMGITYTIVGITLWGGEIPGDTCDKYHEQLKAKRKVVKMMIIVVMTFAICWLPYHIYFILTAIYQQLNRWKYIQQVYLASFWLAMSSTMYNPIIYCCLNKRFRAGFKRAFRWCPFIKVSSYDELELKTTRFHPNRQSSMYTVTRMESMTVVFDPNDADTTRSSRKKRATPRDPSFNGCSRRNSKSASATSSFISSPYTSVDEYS
Assay: [3H]SR142801 competition binding assay

| Structure (SMILES) | pKi |
| --- | --- |
| CN(C(=O)Oc1ccc(F)cc1)[C@@H]1CN(C(=O)C2CCN(C(=O)C3(C(F)(F)F)CCC3)CC2)C[C@H]1c1ccc(Cl)c(Cl)c1 [Example 270, {(3S,4R)-4-(3,4-Dichloro-phenyl)-1-[1-(1-trifluoromethyl-cyclobutanecarbonyl)-piperidine-4-carbonyl]-pyrrolidin-3-yl}-methyl-carbamic acid 4-fluoro-phenyl ester] | 9.22 |
| CN(C(=O)Oc1ccc(F)cc1)[C@@H]1CN(C(=O)C2CCN(C(=O)CC#N)CC2)C[C@H]1c1ccc(Cl)c(Cl)c1 [Example 271, [(3S,4R)-1-[1-(2-Cyano-acetyl)-piperidine-4-carbonyl]-4-(3,4-dichloro-phenyl)-pyrrolidin-3-yl]-methyl-carbamic acid 4-fluoro-phenyl ester] | 10.00 |
| CN(C(=O)Oc1ccc(F)cc1)[C@@H]1CN(C(=O)C2CCN(C(=O)C3(C#N)CC3)CC2)C[C@H]1c1ccc(Cl)c(Cl)c1 [Example 272, [(3S,4R)-1-[1-(1-Cyano-cyclopropanecarbonyl)-piperidine-4-carbonyl]-4-(3,4-dichloro-phenyl)-pyrrolidin-3-yl]-methyl-carbamic acid 4-fluoro-phenyl ester] | 9.10 |
| CN(C(=O)Oc1ccc(F)cc1)[C@@H]1CN(C(=O)C2CCN(C(=O)C3(C(F)(F)F)CC3)CC2)C[C@H]1c1ccc(Cl)c(Cl)c1 [Example 273, {(3S,4R)-4-(3,4-Dichloro-phenyl)-1-[1-(1-trifluoromethyl-cyclopropanecarbonyl)-piperidine-4-carbonyl]-pyrrolidin-3-yl}-methyl-carbamic acid 4-fluoro-phenyl ester] | 9.40 |
| CN(C(=O)Oc1ccc(F)cc1)[C@@H]1CN(C(=O)C2CCN(C(=O)C3CC3(F)F)CC2)C[C@H]1c1ccc(Cl)c(Cl)c1 (stereo partly drawn) [Example 274, {(3S,4R)-4-(3,4-Dichloro-phenyl)-1-[1-(2,2-difluoro-cyclopropanecarbonyl)-piperidine-4-carbonyl]-pyrrolidin-3-yl}-methyl-carbamic acid 4-fluoro-phenyl ester] | 9.05 |
| CN(C(=O)Oc1ccc(F)cc1)[C@@H]1CN(C(=O)C2CCN(C(=O)C3CCOCC3)CC2)C[C@H]1c1ccc(Cl)c(Cl)c1 [Example 275, {(3S,4R)-4-(3,4-Dichloro-phenyl)-1-[1-(tetrahydro-pyran-4-carbonyl)-piperidine-4-carbonyl]-pyrrolidin-3-yl}-methyl-carbamic acid 4-fluoro-phenyl ester] | 9.05 |
| CN(C(=O)Oc1ccc(F)cc1)[C@@H]1CN(C(=O)C2CCN(C(=O)C3CCOC(C)(C)C3)CC2)C[C@H]1c1ccc(Cl)c(Cl)c1 (stereo partly drawn) [Example 276, {(3S,4R)-4-(3,4-Dichloro-phenyl)-1-[1-(2,2-dimethyl-tetrahydro-pyran-4-carbonyl)-piperidine-4-carbonyl]-pyrrolidin-3-yl}-methyl-carbamic acid 4-fluoro-phenyl ester] | 9.00 |
| COCC1(C(=O)N2CCC(C(=O)N3C[C@@H](N(C)C(=O)Oc4ccc(F)cc4)[C@H](c4ccc(Cl)c(Cl)c4)C3)CC2)CC1 [Example 277, {(3S,4R)-4-(3,4-Dichloro-phenyl)-1-[1-(1-methoxymethyl-cyclopropanecarbonyl)-piperidine-4-carbonyl]-pyrrolidin-3-yl}-methyl-carbamic acid 4-fluoro-phenyl ester] | 9.30 |
| CN(C(=O)Oc1ccc(F)cc1)[C@@H]1CN(C(=O)C2CCN(C(=O)C3CC3(C)C)CC2)C[C@H]1c1ccc(Cl)c(Cl)c1 (stereo partly drawn) [Example 278, {(3S,4R)-4-(3,4-Dichloro-phenyl)-1-[1-(2,2-dimethyl-cyclopropanecarbonyl)-piperidine-4-carbonyl]-pyrrolidin-3-yl}-methyl-carbamic acid 4-fluoro-phenyl ester] | 9.22 |
| CN(C(=O)Oc1ccc(F)cc1)[C@@H]1CN(C(=O)C2CCN(C(=O)c3ccc(C(F)(F)F)cn3)CC2)C[C@H]1c1ccc(Cl)c(Cl)c1 [Example 279, {(3S,4R)-4-(3,4-Dichloro-phenyl)-1-[1-(5-trifluoromethyl-pyridine-2-carbonyl)-piperidine-4-carbonyl]-pyrrolidin-3-yl}-methyl-carbamic acid 4-fluoro-phenyl ester] | 8.70 |
| CN(C(=O)Oc1ccc(F)cc1)[C@@H]1CN(C(=O)C2CCN(C(=O)c3ccc(F)cn3)CC2)C[C@H]1c1ccc(Cl)c(Cl)c1 [Example 280, {(3S,4R)-4-(3,4-Dichloro-phenyl)-1-[1-(5-fluoro-pyridine-2-carbonyl)-piperidine-4-carbonyl]-pyrrolidin-3-yl}-methyl-carbamic acid 4-fluoro-phenyl ester] | 9.10 |
| CN(C(=O)Oc1ccc(F)cc1)[C@@H]1CN(C(=O)C2CCN(C(=O)C3CCC(=O)NC3)CC2)C[C@H]1c1ccc(Cl)c(Cl)c1 (stereo partly drawn) [Example 281, {(3S,4R)-4-(3,4-Dichloro-phenyl)-1-[1-(6-oxo-piperidine-3-carbonyl)-piperidine-4-carbonyl]-pyrrolidin-3-yl}-methyl-carbamic acid 4-fluoro-phenyl ester] | 9.52 |
| CC(C)N1CC(C(=O)N2CCC(C(=O)N3C[C@@H](N(C)C(=O)Oc4ccc(F)cc4)[C@H](c4ccc(Cl)c(Cl)c4)C3)CC2)CCC1=O (stereo partly drawn) [Example 282, {(3S,4R)-4-(3,4-Dichloro-phenyl)-1-[1-(1-isopropyl-6-oxo-piperidine-3-carbonyl)-piperidine-4-carbonyl]-pyrrolidin-3-yl}-methyl-carbamic acid 4-fluoro-phenyl ester] | 8.70 |
| CC(=O)N1CCC(C(=O)N2C[C@@H](N(C)C(=O)Oc3ccc(F)cc3)[C@H](c3ccc(Cl)c(Cl)c3)C2)CC1 [Example 283, [(3S,4R)-1-(1-Acetyl-piperidine-4-carbonyl)-4-(3,4-dichloro-phenyl)-pyrrolidin-3-yl]-methyl-carbamic acid 4-fluoro-phenyl ester] | 9.15 |
| CN(C(=O)Oc1ccc(F)cc1)[C@@H]1CN(C(=O)C2CCN(C(=O)CC#N)CC2)C[C@H]1c1ccc(F)cc1 [Example 284, [(3S,4R)-1-[1-(2-Cyano-acetyl)-piperidine-4-carbonyl]-4-(4-fluoro-phenyl)-pyrrolidin-3-yl]-methyl-carbamic acid 4-fluoro-phenyl ester] | 7.51 |
| CC(=O)N1CCC(C(=O)N2C[C@@H](N(C)C(=O)Oc3ccc(F)cc3)[C@H](c3ccc(F)cc3)C2)CC1 [Example 285, [(3S,4R)-1-(1-Acetyl-piperidine-4-carbonyl)-4-(4-fluoro-phenyl)-pyrrolidin-3-yl]-methyl-carbamic acid 4-fluoro-phenyl ester] | 7.72 |
| CN(C(=O)Oc1ccc(F)cc1)[C@@H]1CN(C(=O)C2CCN(C(=O)C3(C)COC3)CC2)C[C@H]1c1ccc(F)cc1 [Example 286, {(3S,4R)-4-(4-Fluoro-phenyl)-1-[1-(3-methyl-oxetane-3-carbonyl)-piperidine-4-carbonyl]-pyrrolidin-3-yl}-methyl-carbamic acid 4-fluoro-phenyl ester] | 7.60 |
| CN(C(=O)Oc1ccc(F)cc1)[C@@H]1CN(C(=O)C2CCN(C(=O)C3CC(F)C3)CC2)C[C@H]1c1ccc(F)cc1 (stereo partly drawn) [Example 287, [(3S,4R)-1-[1-(3-Fluoro-cyclobutanecarbonyl)-piperidine-4-carbonyl]-4-(4-fluoro-phenyl)-pyrrolidin-3-yl]-methyl-carbamic acid 4-fluoro-phenyl ester] | 8.14 |
| CN(C(=O)Oc1ccc(F)cc1)[C@@H]1CN(C(=O)C2CCN(C(=O)C3(C#N)CC3)CC2)C[C@H]1c1ccc(F)cc1 [Example 288, [(3S,4R)-1-[1-(1-Cyano-cyclopropanecarbonyl)-piperidine-4-carbonyl]-4-(4-fluoro-phenyl)-pyrrolidin-3-yl]-methyl-carbamic acid 4-fluoro-phenyl ester] | 7.58 |
| CN(C(=O)Oc1ccc(F)cc1)[C@@H]1CN(C(=O)C2CCN(C(=O)C3(C(F)(F)F)CCC3)CC2)C[C@H]1c1ccc(F)cc1 [Example 289, {(3S,4R)-4-(4-Fluoro-phenyl)-1-[1-(1-trifluoromethyl-cyclobutanecarbonyl)-piperidine-4-carbonyl]-pyrrolidin-3-yl}-methyl-carbamic acid 4-fluoro-phenyl ester] | 7.96 |
| CN(C(=O)Oc1ccc(F)cc1)[C@@H]1CN(C(=O)C2CCN(C(=O)c3ccc(C(F)(F)F)cn3)CC2)C[C@H]1c1ccc(F)cc1 [Example 290, {(3S,4R)-4-(4-Fluoro-phenyl)-1-[1-(5-trifluoromethyl-pyridine-2-carbonyl)-piperidine-4-carbonyl]-pyrrolidin-3-yl}-methyl-carbamic acid 4-fluoro-phenyl ester] | 7.00 |
| CN(C(=O)Oc1ccc(F)cc1)[C@@H]1CN(C(=O)C2CCN(C(=O)C3CCC(=O)NC3)CC2)C[C@H]1c1ccc(F)cc1 (stereo partly drawn) [Example 291, {(3S,4R)-4-(4-Fluoro-phenyl)-1-[1-(6-oxo-piperidine-3-carbonyl)-piperidine-4-carbonyl]-pyrrolidin-3-yl}-methyl-carbamic acid 4-fluoro-phenyl ester] | 6.84 |
| CN(C(=O)Oc1ccc(F)cc1)[C@@H]1CN(C(=O)C2CCN(C(=O)[C@@H]3CC(=O)N3)CC2)C[C@H]1c1ccc(Cl)c(Cl)c1 [Example 292, {(3S,4R)-4-(3,4-Dichloro-phenyl)-1-[1-((S)-4-oxo-azetidine-2-carbonyl)-piperidine-4-carbonyl]-pyrrolidin-3-yl}-methyl-carbamic acid 4-fluoro-phenyl ester] | 10.40 |
